Measurements from patent EP2849731B1, “FORMULATION FOR LOW BIOAVAILABILITY SUBSTANCES CONTAINING A N-ACETYLCYSTEINE-CHITOSAN SALT” (Labomar S.r.l., priority 2012, dated 2013).

Key:
[1] = Intestinal passage test: curcumin passage through the Caco-2 monolayer, HPLC-UV; conditions: human
Method: The passage through a monolayer of Caco-2 cells of Composition A at non-cytotoxic concentration is monitored at defined times (0 min- 15 min -30 min and 60 min).
The Caco-2 cells grown as a monolayer on a permeable artificial support reproduce the intestinal epithelial layer (monolayer of cells that are polarized and coupled by tight junctions). The flow through the monolayer allows to establish the permeability of a substance.
After 21 days of growth on insert, the differentiated cells show an apical side, corresponding to the intestinal lumen in vivo, and one that corresponds to the basolateral compartment of the blood and lymphatic circulation of the organism.
The culture medium is aspirated from all cell monolayers before the experiments of permeability. All cell monolayers are washed once with HBSS solution (Hank's Balanced Salt Solution) and left to equilibrate at 37°C for 20 min. […] In parallel, the same amount of substance is divided into equal aliquots and represents the apical sample at time = 0 minutes (0'AP). At the receiving side of the monolayer 1.2 mL of 1X HBSS-Hepes 1% (pH 7.4) are added. […]
Using the mathematical formulas described by Arturrson the relationships are calculated between concentrations of substances in the basolateral (receiver) and in the apical (donor) compartments at each sampling time.

[2] = Curcumin detection by HPLC-UV in the 0.25% w/w solution of Composition A in buffer; assay type: physicochemical; conditions: due to incomplete solubility in the buffers

**Q.** For COc1cc(/C=C/C(=O)CC(=O)/C=C/c2ccc(O)c(OC)c2)ccc1O [Curcumin, curcumin], which Papp A→B at 60 min, 1.404 mM [1] is on record?
**A.** 0.804 ×10⁻⁶ cm/s

**Q.** And the “loss in title (theoretical curcumin content not detected in the solution)” value [2]?
**A.** 23%
